Data as given in patent publication US20250213647A1, “CHEMOKINE RECEPTORS AND ALPHA1 ADRENERGIC RECEPTORS/VASOPRESSIN RECEPTORS 1A HETEROMERS AS DRUG TARGETS FOR DISEASE” (UNIVERSITY OF SOUTH FLORIDA, priority 2022, published 2025).

How the values were obtained:
α1b-AR:CCR2 heteromer = biological target: T1, α1b-AR:CCR2 heteromer (Homo sapiens, UniProt P35368+P41597); experiment: Gαi activation assay (TRUPATH BRET), HEK293T cells transfected with CCR2 plus α1b-AR; format: cell-based; details: for Gαi1 activation by the ligand alone: cells transfected with α1b-AR alone, CCR2 alone or CCR2 plus α1b-AR, FIG. 4A
T1 construct: expressed in transfected cells; host or cells: HEK293T
T1 sequence (P41597 whole entry, one chain of several): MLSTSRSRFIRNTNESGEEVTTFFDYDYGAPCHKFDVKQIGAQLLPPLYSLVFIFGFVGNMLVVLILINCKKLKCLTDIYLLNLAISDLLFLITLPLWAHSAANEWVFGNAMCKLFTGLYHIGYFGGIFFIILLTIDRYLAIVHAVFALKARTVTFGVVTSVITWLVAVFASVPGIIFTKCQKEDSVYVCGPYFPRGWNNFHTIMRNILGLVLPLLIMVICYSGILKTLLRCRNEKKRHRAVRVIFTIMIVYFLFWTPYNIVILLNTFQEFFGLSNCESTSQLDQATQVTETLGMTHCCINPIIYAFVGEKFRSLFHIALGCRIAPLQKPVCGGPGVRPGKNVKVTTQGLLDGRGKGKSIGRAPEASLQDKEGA
Protocol: HEK293T cells were plated in a 6-well plate and transfected with 0.2 μg each of Gαi1-Rluc8, Gβ3 and Gγ9-GFP2 (Trupath) together with 0.2 μg of mouse or human CCR2 with either pcDNA3.1 or α1b-AR. One day after transfection, cells were trypsinized and replated to 96-well poly-L lysine precoated plates. After overnight incubation, cells were replaced with 0.1% glucose/PBS. Prolume Purple (NanoLight Tech.) or coelenterazine 400a in a final concentration of 5 μM were added in experiments with human or mouse CCR2, respectively, and incubated at room temperature for 3 min. Ligands at various concentrations were added to cells and incubated at room temperature for 5 min before luminescence was measured at 410 nm and 515 nm. […] The BRET changes were calculated by subtracting the BRET signal of untreated cells.

[1] = test system: THP-1 cells (CCR2-mediated Gαi signaling); experiment: Cyclic AMP measurement in forskolin-stimulated THP-1 cells; format: cell-based, human; details: forskolin-stimulated THP-1 cells; 1 μM PE, 1 μM PT or 100 nM NE; 15 min at 37° C.; FIG. 4G, 4H
Protocol: Cyclic AMP amounts were measured using the cAMP complete enzyme immunoassay kit, acetylated format (Enzo Life Sciences). 4×10^5 cells were incubated with forskolin/isobutylmethylxanthine (10 μM/0.5 mM final concentrations) in 0.1% BSA/10 mM Hepes-buffered RPMI and treated with CCL2 in the presence or absence of 1 μM PE, 1 μM PT or 100 nM NE at 37° C. for 15 min. The cells were lysed by incubating with 0.1 M HCl at room temperature for 20 min. The cAMP amounts in the lysate supernatant were measured following the manufacturer's instructions.

CCR2 = CCR2 (Homo sapiens, UniProt P41597); experiment: PRESTO-Tango β-arrestin recruitment assay, HTLA cells with CCR2-Tango plus pcDNA3; format: cell-based; details: absence of α1b-AR; FIG. 5A
Chain of CCR2 (P41597 whole entry): as the sequence (P41597 whole entry, one chain of several) above
Protocol: The assays were performed as described previously (Albee, 2017; Gao, 2022; Albee, 2018; Eby, 2017; Cheng, 2017). HTLA cells were seeded in a 6-well plate and transfected with 750 ng FLAG-CCR2-Tango together with 750 ng pcDNA3.1 or HA-α1b-AR using TransIT-2020 Transfection Reagent. The next day, cells (75,000 cells/well) were plated onto poly-L-Lysine pre-coated 96-well plates and allowed to attach to the plate surface for at least 4 hours prior to treatment. Cells were treated with receptor ligands at the concentrations indicated in the figure legends for 2 h and then replaced with fresh full medium and incubated overnight at 37° C., 5% CO2 in a humidified environment. The following morning, medium was replaced with a 100 μL 1:10 mixture of Bright-Glo (Promega) and PBS. Plates were then incubated at room temperature for 10 min before measuring luminescence on a Biotek Synergy II plate reader. Relative luminescence units (RLU) are expressed as fold changes of RLU vs unstimulated cells.

CXCR4 = experiment: Chemotaxis assay, THP-1 cells toward CXCL12 (CXCR4-mediated); format: cell-based, human; details: CXCL12 100 nM, mean±SE, read-out: IC50 for inhibition of CXCR4-mediated chemotaxis
Protocol: (§1) Cell migration was measured employing the Neuroprobe (Gaithersburg, MD, USA) ChemoTx® Disposable Chemotaxis System. A 96-well Boyden-chamber (30 μL/well, 8 μm pores, 1×10^5 pores/cm^2 pore density) was selected for all chemotaxis experiments. Bottom wells of the Boyden-chamber were loaded with 30 μL of test substances at various concentrations. Top wells of the membrane were loaded with 25 μL of THP-1 cells, THP-1_ADRA1B^KO, wild type THP-1 cells after clonal expansion (=control for THP-1_ADRA1B^KO) or freshly isolated monocytes (200 cells/μL). THP-1 cells were suspended in depleted RPMI1640 (0.5% HyClone™ fetal bovine serum, Sigma); Freshly isolated monocytes were suspended in RPMI1640 (0.5% human platelet poor plasma, Sigma). After 3 hours, transmigrated cells were counted utilizing the Cytation 1 plate reader (BioTek) by direct imaging in high contrast bright field (4×) and post-imaging particle analyses with Gen5 (v3.05) Imaging & Microscopy Software (BioTek). The chemotactic index (CI) was calculated as the ratio of cells that transmigrated in the presence versus the absence of the test solutions.

[2] = test system: CR heteromerization partners of α1B/D-ARs (CCR1, CCR2, CXCR4); experiment: Chemotaxis assay, THP-1 cells, CR heteromerization partners of α1B/D-ARs taken together; format: cell-based, human; details: for chemotactic dose-responses for CCL23, CCL2 and CXCL12 in the presence of the ligand: 10 μM of phenylephrine or phentolamine, FIG. 17G-17I
Protocol: as §1

[3] = test system: heteromeric complexes between α1B/D-ARs and CCR1, CCR2, CXCR4; experiment: Proximity ligation assay, receptor-receptor interactions on THP-1 cells; details: 10 μM, 30 min at 37° C.; FIG. 8
[4] = biological target: T2, heteromerization between α1b-AR and CCR2 (Homo sapiens, UniProt P35368); experiment: Saturation BRET to assess receptor heterodimerization (α1b-AR-RlucII / CCR2-EYFP, HEK293T); details: 10 μM ligand, 5 min; for BRETmax: FIG. 3B; for BRET50 values: FIG. 3C
T2 sequence (P35368 1-520): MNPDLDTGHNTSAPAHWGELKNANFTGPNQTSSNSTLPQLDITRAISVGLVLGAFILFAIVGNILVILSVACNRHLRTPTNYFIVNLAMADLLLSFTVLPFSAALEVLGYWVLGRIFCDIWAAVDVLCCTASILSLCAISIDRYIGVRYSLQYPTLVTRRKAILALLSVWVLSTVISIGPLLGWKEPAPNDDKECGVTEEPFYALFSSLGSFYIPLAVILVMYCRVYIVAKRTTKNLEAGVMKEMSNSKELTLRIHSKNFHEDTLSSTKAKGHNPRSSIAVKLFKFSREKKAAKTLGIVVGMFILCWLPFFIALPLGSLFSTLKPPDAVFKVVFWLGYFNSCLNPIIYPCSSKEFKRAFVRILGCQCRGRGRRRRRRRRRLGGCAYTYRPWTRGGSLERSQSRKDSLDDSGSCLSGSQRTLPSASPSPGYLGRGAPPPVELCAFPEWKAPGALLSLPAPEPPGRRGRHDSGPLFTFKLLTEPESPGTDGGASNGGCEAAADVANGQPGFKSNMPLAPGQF

Row | bottom plateau, CCL2-induced Gαi activation in the presence of the ligand (α1b-AR:CCR2 heteromer; CCL2 plus 10 μM PT, FIG. 4F) | SMILES | Gαi1 activation by the ligand alone (α1b-AR:CCR2 heteromer) | effect on the effects of CCL2 on cAMP production [1] | β-arrestin recruitment to CCR2-Tango by the ligand (CCR2) | IC50 (CXCR4) [nM] | chemotactic dose-responses for CCL23, CCL2 and CXCL12 in the presence of the ligand [2] | heteromeric complexes between α1B/D-ARs and their chemokine heteromerization partners (PLA signals) [3] | BRETmax [4] | BRET50 values [4] | bottom plateau, CCL2-induced Gαi activation in the presence of the ligand (α1b-AR:CCR2 heteromer; CCL2 plus 1 μM NE, FIG. 4D) | bottom plateau, CCL2-induced Gαi activation in the presence of the ligand (α1b-AR:CCR2 heteromer; CCL2 plus 10 μM PE, FIG. 4C) | inhibition of chemotaxis mediated via CR heteromerization partners of α1B/D-ARs ([2]; FIG. 17A)
1 | −0.033±0.002 | Cc1ccc(N(CC2=NCCN2)c2cccc(O)c2)cc1 [phentolamine] | did not activate Gαi1 | inhibited the effects of CCL2 on cAMP production | did not induce | 0.2 ± 0.2 | inhibited chemotaxis over the complete range of chemokine concentrations | reduced | did not affect | significantly increased | – | – | –
2 | – | CNC[C@H](O)c1cccc(O)c1 [phenylephrine] | did not activate Gαi1 | inhibited the effects of CCL2 on cAMP production | did not induce | 17 ± 29 | inhibited chemotaxis over the complete range of chemokine concentrations | reduced | did not affect | significantly increased | −0.031±0.002 | −0.03±0.002 | 50-55%
